Patent publication US11337426B2, “Biological control agents against fire blight” (priority 2018, dated 2022)

What was measured:
E. amylovora S435 [1] = assay: Management of fire blight on shoots of potted McIntosh apple trees; format: in vivo, Erwinia amylovora; settings: treated 2 h after inoculation, formulations diluted to 20%, streptomycin 100 ppm, 10 d
Protocol: A trial was conducted at the IRDA research station in Saint-Bruno-de-Montarville, Québec to evaluate the efficacies of the best isolates previously screened. To simulate fire blight, Malus x domestica ‘McIntosh’ cultivar trees were inoculated then treated 2 h later with 20% (w/w) isolate dilutions. Inoculum was obtained by suspending a 5-d culture of the virulent strain E. amylovora […] in potassium phosphate buffer (pH=6.5) in King B agar which favors the growth of this phytopathogen. The bacterial density was adjusted to ˜1×10^9 CFU/mL. Actively growing potted trees (cv. McIntosh grafted onto M26) were inoculated by transversely bisecting the two youngest leaves with scissors dipped in the inoculum. One or two shoots were inoculated per tree. Two hours after inoculation, candidate biological control agent suspensions were sprayed to runoff onto five trees per treatment using a low-pressure sprayer. The experimental design was completely randomized.
Inoculated controls were sprayed either with water or with the medium used to formulate the candidate biocontrol products. Uninoculated controls were sprayed only with water. […] Severity scores were analyzed with a cumulative link mixed model (clmm) in the “ordinal” package of R. Treatment and observation date were used as fixed effects. […]

[2] = test system: Erwinia amylovora strain S01; assay: Field trial to control fire blight on Rome apple trees, Geneva NY; format: in vivo
Protocol: A field trial was conducted to determine the performance of the formulated product based on the vegetative cells of Pseudomonas poae FL10F and its extracellular metabolites produced in the supernatants and was compared to antibiotic (FireWall 17 WP Streptomycin), copper fungicide (Cueva, Certis, USA) and the biological product Blossom Protect based on two strains of Aureobasidium pullulans. […] Both antibiotic and copper that were used in this trial were EPA registered products. Pseudomonas poae FL10F was cultivated for 2 days at 30° C. and 200 rpm and reached an OD600 nm=2.50, which was empirically determined to represent 2.50×10^9 CFU/mL by plating serial dilutions of the suspension and counting colonies. A 4L of product based on Pseudomonas poae FL10F and its metabolites was produced as described above and was sprayed more than 2 months later on apple Rome trees. Three samples of this formulated product were retained in sterile 50 mL polypropylene centrifuge tubes at room temperature for long-term activity and bacterial count studies.
The 4L product was used during in a field trial conducted in Phelps, (Geneva) NY to evaluate the product against fire blight. Apple Rome were used for this study that had 5 to 12 blossom clusters per tree. These were 1-year-old trees from Waffler Nursery, Wolcott, N.Y.
The experimental treatments were applied using a CO2 Backpack sprayer that was calibrated to deliver 100 gallons per acre (Trees were sprayed to first drip with a “dilute” solution of products.) The sprayer was calibrated at 42 PSI and used 2 Hollow Cone (TXVK18) Nozzles.
An evaluation of treatments was conducted using the method where scissors were dipped into a solution of a streptomycin sensitive Erwinia amylovora strain S01, and the two smallest leaves on each terminal or shoot were cut in half. This severe test is used to simulate infection that can occur following hailstorms. The scissors were dipped into the Erwinia amylovora S01 solution prior to each cut. The apical terminal shoot and the terminal leaves on any side shoots were cut. For the size of these trees, the number of terminals that were cut varied from 9 to 18. To evaluate the treatments for this method, each treatment was applied as before to all leaves and shoots of seven individual trees. The inoculations occurred near dusk, and 1.15 inches of rain occurred during the overnight period. All treatments were applied 30 minutes before the infection and then re-applied 24 hours after the initial inoculation. The second application of treatments was applied to the same trees. The product based on Fluorescent Pseudomonas poae FL10F and its metabolites was first diluted at a concentration of 20% (w/w) with water then it was mixed properly and sprayed.
At 3 weeks following the scissor inoculation, each terminal shoot was rated for the length in inches with typical symptoms of fire blight (rated as SEVERITY). Then the percentage of all shoots that had any symptoms of fire blight was calculated as INCIDENCE).
The objective of this trial was to compare the activity of P. poae FL with antibiotic (Streptomycin), copper fungicide (Cueva, Certis, USA) and the biological product Blossom Protect based on two strains of Aureobasidium pullulans (Porter et al., 1960). Apple trees were infected with […] CFU/mL solution of Erwinia amylovora. The concentration of various treatments applied are represented in Table 13. The medium used in Treatment 7 is the same one used to cultivate the P. poae FL composed of Nutrient Broth NB (Difco) supplemented with 0.5% (w/w) glycerol and a concentration of 4% NaCl (w/w). Neither the medium nor the treatments used were phytotoxic to apple leaves and no phytotoxicity was noted on the apple trees in this study.

E. amylovora S435 [3] = assay: Agar disc diffusion assay of cell-free supernatants and fractions; format: cell-based, Erwinia amylovora; settings: active fraction from bioassay-guided fractionation
Protocol: To obtain cell-free supernatants, cultures of both strains were centrifuged at 25 000 rpm for 1 hour. The pellets were discarded and the supernatants were filtered using Stericup™ vacuum filtration system (0.2 μm). Fresh cell-free supernatants were used for the present research, but they could also be stored at +4° C. for one week, or at −20° C. for 6 months, while keeping their activity.
1 L of each bacterial culture was combined, and biomass was removed by centrifugation at 17 700×g for 20 min. The cell-free medium supernatant was applied to 40 g of pre-equilibrated Amberlite™ XAD-16 resin packed in a column. The XAD-16 column was subsequently washed with 1 L of H2O, and then eluted with 1 L of 100% methanol. The methanolic elution was evaporated to dryness by rotary evaporation, and the brown residue was redissolved in 5 ml of purified water (Milli-Q system; Millipore, Bedford, Mass.). The concentrated solution was then applied onto a 12 gram Biotage® SNAP Ultra C18 column to be fractionate using reverse-phase flash chromatography on a Biotage (Stockholm, Sweden) Isorela One instrument. This chromatography was performed using a linear gradient acetonitrile from 5% to 100% over 50 min at 15 ml min^−1. […] The bioactivity of these fractions was further determined by performing agar disc diffusion assay. […]

[4] = 3 weeks, Strepmycin 2.4 oz wt/a

Compound | Median score (disease severity 0-4) (E. amylovora S435 [1]) | Fire blight Severity: Average length of shoot with symptoms of Fire blight ([2]; 3 weeks after scissor inoculation, Strepmycin 8 oz wt/a, Cueva 64 fl oz/a, P. poae FL10F 20 % v/v, Blossom Protect 20 oz wt/a) [INCHES] | Fire blight Incidence: Average percentage of shoots with symptons of Fire blight following inoculation [2, 4] [%] | Fire blight Severity: Average length of shoot with symptoms of Fire blight [2, 4] [INCHES] | Fire blight Incidence: Average percentage of shoots with symptons of Fire blight following inoculation ([2]; 3 weeks, Strepmycin 8 oz wt/a, Cueva 64 fl oz/a, P. poae FL10F 20 % v/v, Blossom Protect 20 oz wt/a) [%] | Phytotoxicity: Percentage of leaves with atypical symptoms ([2]; Strepmycin 2.4 oz wt/a) [%] | Phytotoxicity: Percentage of leaves with atypical symptoms ([2]; Strepmycin 8 oz wt/a, Cueva 64 fl oz/a, P. poae FL10F 20 % v/v, Blossom Protect 20 oz wt/a) [%] | inhibition halos of the extracellular metabolite fraction on a lawn of E. amylovora S435 (E. amylovora S435 [3])
[H]/N=C(/N)N[C@H]1[C@H](O)[C@@H](O)[C@H](O[C@@H]2O[C@@H](C)[C@](O)(C=O)[C@H]2O[C@@H]2O[C@@H](CO)[C@H](O)[C@@H](O)[C@@H]2NC)[C@@H](N/C(N)=N\[H])[C@@H]1O [Streptomycin] | 0 | 3.89 | 81.73 | 5.53 | 52.39 | 0.00 | 0.00 | –
oxydifficidin | – | – | – | – | – | – | – | comparable in diameter to that of the live strain itself or crude extracellular metabolites therefrom
white line-inducing principle [WLIP] | – | – | – | – | – | – | – | comparable in diameter to that of the live strain itself or crude extracellular metabolites therefrom
